Measurements from patent US11441119B2, “Culture media comprising n-Acyl-X-glutamine dipeptides” (Evonik Operations GmbH, priority 2017, dated 2022).
Residues, ends and D or L forms follow the SMILES beside them.

Legend:
[1] = test system: Chinese Hamster Ovary (CHO) cells (Subclone DG44); assay: Batch cultivation of CHO DG44 cells in glutamine-free PowerCHO-2 CD medium supplemented with glutamine sources: growth and productivity; format: cell-based; details: for Relative cell-specific productivity: relative titer/IVCD relative to 100% free glutamine; for Relative time-related productivity: relative titer/cultivation time relative to free glutamine; for Relative titer / Cultivation time until 80% viability / Integrated viable cell density (IVCD): total glutamine 8 mM; for Relative titer: relative to titer of 100% free glutamine; for Cultivation time until 80% viability / Integrated viable cell density (IVCD): third passage; for Integrated viable cell density (IVCD): until viability below 80%; for Performance in batch cultivation, in words (titer, productivities): comparison of the supplements of Tables 1 and 2
Procedure: Acetyl-A-Q was mixed with free glutamine or A-Q in molar ratios between 0 and 100%. The mixtures were added to a glutamine-free medium (PowerCHO-2 CD, Lonza AG, Visp, Switzerland) to obtain a total glutamine concentration of 8 mM in the final medium. Growth and productivity were measured using Chinese Hamster Ovary (CHO) cells (Subclone DG44; Life Technologies Cooperation, Carlsbad, USA). Cultivation was continued up to the point where the viability of the culture dropped below 80%. Data from the third passage was used. All titer-related information is given relative to the titer of 100% free glutamine. Accordingly, the relative cell-specific productivity was obtained by first dividing the relative titer by the integrated viable cell density (IVCD), then dividing this number by the titer/IVCD ratio for 100% free glutamine. The relative time-specific productivity was obtained by dividing the relative titer by the cultivation duration until the sampling, then dividing this number by the titer/cultivation time ratio for free glutamine. In a second set of experiments within the same experimental campaign, acetyl-A-Q was mixed with A-Q and tested under the same conditions as described above. The 100% points for acetyl-A-Q as well as the free glutamine reference are identical to the first example.

[2] = test system: Chinese Hamster Ovary (CHO) cells (Subclone DG44); assay: Fed-batch cultivation of CHO DG44 cells with glutamine sources in basal medium and feed supplement: growth and productivity; format: cell-based
Procedure: Free glutamine, A-Q or Acetyl-A-Q were added to a glutamine-free medium (PowerCHO-2 CD, Lonza AG, Visp, Switzerland) to obtain a total glutamine concentration of 8 mM in the final medium.
In addition, these substances as well as a 75% mixture of acetyl-A-Q and A-Q were added to a glutamine-free formulation of a commercial feed supplement (CHOMACS Feed Supplement, Miltenyi Biotech, Germany) to yield a glutamine concentration of 5.5 g/L. Growth and productivity were measured using Chinese Hamster Ovary (CHO) cells (Subclone DG44; Life Technologies Cooperation, Carlsbad, USA).The results are summarized in Table 3. All titer-related information is given relative to the titer obtained by adding free glutamine to basal medium and feed. Accordingly, the relative cell-specific productivity was obtained by first dividing the relative titer by the integrated viable cell density (IVCD), then dividing this number by the titer/IVCD ratio for 100% free glutamine. The relative time-specific productivity was obtained by dividing the relative titer by the cultivation duration until the sampling, then dividing this number by the titer/cultivation time ratio for free glutamine.

[3] = basal medium source/feed source, 8 mM glutamine in medium, 5.5 g/L in feed

Which results are given for `C[C@H](N)C(=O)N[C@@H](CCC(N)=O)C(=O)O` [100% AQ, alanyl-glutamine] (H-Ala-Gln-OH)?
Relative cell-specific productivity ([1]; acetyl-A-Q mixed with A-Q): 75%; Relative time-related productivity ([1]; acetyl-A-Q mixed with A-Q): 102%; Relative titer ([1]; acetyl-A-Q mixed with A-Q): 1.10; Cultivation time until 80% viability ([1]; acetyl-A-Q mixed with A-Q): 13.9; Integrated viable cell density (IVCD) ([1]; acetyl-A-Q mixed with A-Q): 47.1; Performance in batch cultivation, in words (titer, productivities) [1]: performs at a lower level in all relevant categories

What does the source list for `NC(=O)CC[C@H](N)C(=O)O` [100% Q, L-glutamine]?
Relative cell-specific productivity ([1]; acetyl-A-Q mixed with A-Q): 100%; Relative time-related productivity ([1]; acetyl-A-Q mixed with A-Q): 100%; Relative titer ([1]; acetyl-A-Q mixed with A-Q): 1.00; Cultivation time until 80% viability ([1]; acetyl-A-Q mixed with A-Q): 12.9; Integrated viable cell density (IVCD) ([1]; acetyl-A-Q mixed with A-Q): 32.0; Relative cell-specific productivity ([1]; acetyl-A-Q mixed with free Q): 100%; Relative time-related productivity ([1]; acetyl-A-Q mixed with free Q): 100%; Relative titer ([1]; acetyl-A-Q mixed with free Q): 1.00; Cultivation time until 80% viability ([1]; acetyl-A-Q mixed with free Q): 12.9; Integrated viable cell density (IVCD) ([1]; acetyl-A-Q mixed with free Q): 32.0

With `CC(=O)N[C@@H](C)C(=O)N[C@@H](CCC(N)=O)C(=O)O` [100% acetyl-A-Q, acetyl-A-Q] (Ac-Ala-Gln-OH) as the compound, how does the Relative cell-specific productivity ([1]; acetyl-A-Q mixed with A-Q) read?
The Relative cell-specific productivity was 434%.

What about the Relative time-related productivity ([1]; acetyl-A-Q mixed with A-Q) of the same compound?
The Relative time-related productivity was 99%.

And the Relative titer ([1]; acetyl-A-Q mixed with A-Q)?
The Relative titer was 1.37.

And the “Cultivation time until 80% viability” value ([1]; acetyl-A-Q mixed with A-Q)?
The value was 17.9.

And the “Integrated viable cell density (IVCD)” value ([1]; acetyl-A-Q mixed with A-Q)?
The value was 10.1.

And the Relative cell-specific productivity ([1]; acetyl-A-Q mixed with free Q)?
Its Relative cell-specific productivity is 434%.

What about the Relative time-related productivity ([1]; acetyl-A-Q mixed with free Q) of the same compound?
The Relative time-related productivity was 99%.

And the Relative titer ([1]; acetyl-A-Q mixed with free Q)?
Its Relative titer is 1.37.

What about the “Cultivation time until 80% viability” value ([1]; acetyl-A-Q mixed with free Q) of the same compound?
Its value is 17.9.

And the “Integrated viable cell density (IVCD)” value ([1]; acetyl-A-Q mixed with free Q)?
Its value is 10.1.

What about the “Performance in batch cultivation, in words (titer, productivities)” value [1] of the same compound?
Its value is “best values for relative titer and cell-specific productivity”.

What about the “Performance in fed-batch cultivation, in words (productivity, cell density, titer)” value ([2]; comparison of the combinations of Table 3) of the same compound?
Its value is “very high cell-specific productivities, but very low cell density”.

With `CC(=O)N[C@@H](C)C(=O)N[C@@H](CCC(N)=O)C(=O)O` [Acetyl A-Q/acetyl-A-Q] (Ac-Ala-Gln-OH) as the compound, how does the “Cultivation time until 80% viability” value [2, 3] read?
The value was 15.0.

What about the “Integrated viable cell density (IVCD)” value [2, 3] of the same compound?
Its value is 8.2.

And the Relative cell-specific productivity ([2]; relative titer/IVCD relative to 100% free glutamine)?
Its Relative cell-specific productivity is 145%.

What about the Relative time-related productivity ([2]; relative titer/cultivation time relative to free glutamine) of the same compound?
Its Relative time-related productivity is 18%.

What about the Relative titer ([2]; relative to titer with free glutamine in basal medium and feed) of the same compound?
Its Relative titer is 0.2.
